11 molecules from ChEMBL document CHEMBL1201862, “PubChem BioAssay data set” (2004) can be followed below.

Each structure is given as a SMILES string.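 Five compound concentrations were applied to cells in 96-well plates for 48 hours; endpoints were derived by simple linear interpolation of the resulting dose-response curve. Here, GI50 denotes the concentration required for 50% inhibition of growth.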 Activity calls are given as the source filed them. Cut-off read from the data, not from the text of the source: active = GI50 up to about 1.1 µM and inactive = higher. Some results are limits rather than exact numbers.

Test systems include EKVX; TK-10; HCT-15; IGROV-1; SN12C; OVCAR-8; A549; SNB-19; COLO 205; SNB-75; NCI-H460; NCI-H522; HCT-116; SF-295; SK-OV-3.
Experiment in all cases: NCI tumour cell line growth inhibition, 48 h

For `Oc1cc(-c2ccc[nH]2)nc2cc3c(cc12)OCO3`, the GI50 is 55.3 µM (inactive) in the assay on EKVX; 62.8 µM (inactive) in the assay with TK-10; 23.2 µM in the assay with HCT-15; 33.3 µM (inactive) with IGROV-1; 49 µM (inactive) in the assay on SN12C; 46.7 µM (inactive) with OVCAR-8. The GI50 with A549 is 53.8 µM (inactive); in the assay on SNB-19, 37.7 µM (inactive); with COLO 205, 18.5 µM (inactive); in the assay with SNB-75 it was 13.8 µM (inactive); with NCI-H460 it was 25.2 µM (inactive).

`COc1ccc(/C=C2\C(=O)N(C(=O)c3ccc(NC(C)=O)cc3)N=C2C)cc1OC`: the GI50 was > 100 µM (inactive) in the assay on EKVX; > 100 µM (inactive) in the assay with TK-10; > 100 µM (inactive) with NCI-H522; above 100 µM with HCT-15; > 100 µM (inactive) in the assay with HCT-116; > 100 µM (inactive) with SN12C. Further, the GI50 in the assay with OVCAR-8, in the assay on SF-295, with A549, with SNB-19, in the assay with COLO 205 and with SNB-75 was > 100 µM (inactive) throughout. In the assay with NCI-H460, the GI50 was > 100 µM (inactive).

Consider `CCOC(=O)C1=C(C)N(NC(N)=O)C2(N)N(NC(N)=O)C(C)=C(C(=O)OCC)C12C(=O)OCC` (configuration not stated), for which the GI50 in the assay on EKVX is > 100 µM (inactive); with NCI-H522, > 100 µM (inactive); in the assay with HCT-15, above 100 µM; in the assay on IGROV-1 it was > 100 µM (inactive); in the assay with SK-OV-3 it was > 100 µM (inactive); in the assay with HCT-116, > 100 µM (inactive). Moreover, the GI50 with SN12C is > 100 µM (inactive); with OVCAR-8 it was > 100 µM (inactive); in the assay on SF-295, > 100 µM (inactive); in the assay on A549, > 100 µM (inactive); with SNB-19, > 100 µM (inactive); with SNB-75, 47.8 µM (inactive). Moreover, the GI50 in the assay with NCI-H460 is > 100 µM (inactive).

With `CCOC(=O)C1(Cc2ccccc2)CCCCCN1` (configuration not stated), the GI50 with EKVX was > 100 µM (inactive); in the assay with TK-10, > 100 µM (inactive); in the assay with HCT-15 it was above 100 µM; in the assay with IGROV-1, > 100 µM (inactive); in the assay on SK-OV-3, > 100 µM (inactive); with SN12C, > 100 µM (inactive). Moreover, the GI50 in the assay with OVCAR-8 is > 100 µM (inactive); in the assay with SF-295 it was > 100 µM (inactive); with A549 it was > 100 µM (inactive); with COLO 205, > 100 µM (inactive); with SNB-75, 32.8 µM (inactive); in the assay with NCI-H460, > 100 µM (inactive).

Take `Cc1cccc2c1C(=O)OC2(C)c1cccc2ccccc12` (configuration not stated): the GI50 is 35.7 µM (inactive) with EKVX; 29.5 µM (inactive) in the assay on TK-10; 16.8 µM (inactive) in the assay with NCI-H522; 29 µM with HCT-15; 21.2 µM (inactive) with SN12C; 32.3 µM (inactive) with OVCAR-8. The GI50 in the assay on SF-295 was 32.1 µM (inactive); in the assay with A549 it was 35.2 µM (inactive); with SNB-19 it was 78.5 µM (inactive); in the assay with SNB-75, 9.71 µM (inactive); with NCI-H460, 29.7 µM (inactive).

As for `CCOC(=O)C1S/C(=N/c2ccc(Cl)cc2C)N=C1C` (configuration not stated), the GI50 is 32.2 µM (inactive) in the assay with EKVX; 24.7 µM (inactive) in the assay with TK-10; 13.3 µM (inactive) in the assay on NCI-H522; 18.5 µM in the assay on HCT-15; 25.1 µM (inactive) in the assay on IGROV-1; 15.1 µM (inactive) with HCT-116. The GI50 with SN12C was 18.5 µM (inactive); with OVCAR-8, 28.1 µM (inactive); with SF-295 it was 23.8 µM (inactive); with A549, 21.4 µM (inactive); in the assay on SNB-19 it was 26.6 µM (inactive); in the assay with COLO 205, 17.1 µM (inactive). Moreover, the GI50 in the assay on SNB-75 was 23.6 µM (inactive); in the assay on NCI-H460 it was 22 µM (inactive).

`Nc1nc(N)c2ncn(CCCC(c3ccccc3)P(=O)(O)O)c2n1` (configuration not stated): the GI50 in the assay with TK-10 is > 100 µM (inactive); in the assay on NCI-H522, > 100 µM (inactive); with HCT-15 it was above 100 µM; in the assay on IGROV-1, > 100 µM (inactive); in the assay on SK-OV-3, > 100 µM (inactive); with HCT-116, > 100 µM (inactive). Moreover, the GI50 with SN12C, in the assay on OVCAR-8, in the assay with SF-295, in the assay with A549, in the assay with SNB-19 and in the assay on COLO 205 was > 100 µM (inactive) throughout. Further, the GI50 in the assay with SNB-75 and in the assay on NCI-H460 was > 100 µM (inactive) throughout.

Take `C[C@@H]1[C@H](c2ccccc2)O[B-]2(c3ccc(Br)cc3)OC(=O)C[N+]12C` (some centres not stated): the GI50 in the assay on EKVX was > 100 µM (inactive); with NCI-H522, > 100 µM (inactive); in the assay on HCT-15 it was above 100 µM; with IGROV-1 it was > 100 µM (inactive); in the assay with SK-OV-3, > 100 µM (inactive); in the assay with HCT-116, > 100 µM (inactive). The GI50 in the assay on SN12C, with OVCAR-8, with SF-295, in the assay on A549, in the assay with SNB-19 and with COLO 205 was > 100 µM (inactive) each time. Further, the GI50 is 5.3 µM (inactive) in the assay on SNB-75 and > 100 µM (inactive) with NCI-H460.

As for `COc1ccc(C2Oc3c(cc(O)c(OC)c3C)[C@@H]2C)cc1OC` (some centres not stated), the GI50 with EKVX is > 100 µM (inactive); with TK-10, > 100 µM (inactive); in the assay with NCI-H522, 34.4 µM (inactive); with HCT-15, above 10 µM; in the assay with IGROV-1 it was > 100 µM (inactive); in the assay on SK-OV-3, > 100 µM (inactive). Besides, the GI50 in the assay with HCT-116, in the assay on OVCAR-8, in the assay on SF-295, in the assay with A549, in the assay on SNB-19 and in the assay on COLO 205 was > 100 µM (inactive) throughout. Moreover, the GI50 in the assay on SNB-75 is 29.7 µM (inactive); in the assay on NCI-H460, > 100 µM (inactive).

In the case of `CC1(CO)OC1COCc1ccccc1` (configuration not stated), the GI50 in the assay on EKVX was > 100 µM (inactive); in the assay with HCT-15 it was above 100 µM; in the assay with IGROV-1, > 100 µM (inactive); in the assay with SK-OV-3, > 100 µM (inactive); with SN12C, > 100 µM (inactive); in the assay on OVCAR-8 it was > 100 µM (inactive). Further, the GI50 with SF-295, in the assay with A549, in the assay with SNB-19, in the assay with COLO 205, in the assay on SNB-75 and with NCI-H460 was > 100 µM (inactive) in each case.

In the case of `C/C(=N\NC(=O)C[n+]1ccccc1)c1sc(-c2nc(C)c(/C(C)=N/NC(=O)C[n+]3ccccc3)s2)nc1C`, the GI50 is > 100 µM (inactive) in the assay with EKVX; > 100 µM (inactive) in the assay on TK-10; 37.7 µM with HCT-15; > 100 µM (inactive) in the assay with IGROV-1; > 100 µM (inactive) with SK-OV-3; 68.5 µM (inactive) in the assay on HCT-116. Further, the GI50 in the assay with SN12C, in the assay with OVCAR-8, in the assay on SF-295, in the assay on A549, with SNB-19 and with COLO 205 was > 100 µM (inactive) in each case. In addition, the GI50 in the assay on SNB-75 and with NCI-H460 was > 100 µM (inactive) in each case.
